Measurements as given in ChEMBL document CHEMBL1151155, “Effect of magnesium lithospermate B on urinary prostaglandins in rats with renal failure” (1990).
Active and inactive are the calls of the source. The calls are words filed in the database; no cut-off is given here.

Tests used:
Rattus norvegicus [1] = test: Effect on urinary excretion of prostaglandin in adenine rich diet fed LWH:Wistar rat assessed as urine prostaglandin E2 level per 24 hrs at […], ip administered from day 7 to day 12 of adenine ingestion; type: functional
Rattus norvegicus [2] = test: Effect on urinary excretion of prostaglandin in adenine rich diet fed LWH:Wistar rat assessed as urine TXB2 level per 24 hrs at […], ip administered from day 7 to day 12 of adenine ingestion; type: functional
Rattus norvegicus [3] = test: Protection against renal failure in adenine rich diet fed LWH:Wistar rat up to […], ip administered once daily from day 7 to day 12 of adenine ingestion; type: functional, organism-based
Rattus norvegicus [4] = test: Effect on urinary excretion of prostaglandin in adenine rich diet fed LWH:Wistar rat assessed as urine 6-keto-PGF1-alpha level per 24 hrs at […], ip administered from day 7 to day 12 of adenine ingestion; type: functional
Rattus norvegicus [5] = test: Decrease in urinary excretion of thromboxane B2 in adenine rich diet fed LWH:Wistar rat at […], ip administered from day 7 to day 12 of adenine ingestion; type: functional, Urine; design: scale not given: the % may be the effect or the level left
Rattus norvegicus [6] = test: Increase in urinary excretion of prostaglandin E2 in adenine rich diet fed LWH:Wistar rat at […], ip administered from day 7 to day 12 of adenine ingestion; type: functional, organism-based; details: Urine

O=C(/C=C/c1ccc(O)c2c1[C@H](C(=O)O[C@H](Cc1ccc(O)c(O)c1)C(=O)[O-])[C@@H](c1ccc(O)c(O)c1)O2)O[C@H](Cc1ccc(O)c(O)c1)C(=O)[O-].[Mg+2] [MAGNESIUM LITHOSPERMATE B]
Activity (Rattus norvegicus [1]): 72.5 ng
Activity (Rattus norvegicus [2]): 23.3 ng
Activity (Rattus norvegicus [3]): Active
Activity (Rattus norvegicus [4]): 20.7 ng
Activity (Rattus norvegicus [5]): 36%
Activity (Rattus norvegicus [6]): Active
